From US11340226B2, “Squalene epoxidase in the diagnosis and treatment of non-alcoholic fatty liver diseases” (priority 2018, dated 2022)

Columns and labels:
[1] = system: orthotopic HKCI2 xenografts; assay: Orthotopic HKCI2 xenograft (human NAFLD-HCC) nude mice model; type: in vivo, Balb/c nude mice
Method: An orthotopic human NAFLD-HCC mouse model was established using HKCI2 cells. HKCI2 cells (1×10^7 cells in 0.1 ml PBS) were injected subcutaneously into the left dorsal flank of 4-week-old male Balb/c nude mice. Subcutaneous tumors were harvested once they reached about 10 mm^3 and cut into 1.0 mm^3 pieces. One piece of a tumor was implanted into the left liver lobe in a separate group of nude mice (4-week-old). Four weeks after implantation, these mice were divided into vehicle group (PBS, p.o.) and terbinafine group (80 mg/kg, p.o.). Eight weeks post-implantation, the mice were sacrificed and examined. 10^6 cells or 2 mg tissues were harvested, and cholesterol/cholesteryl ester levels were detected by Cholesterol/Cholesteryl Ester Quantification kit (ab65359, Abcam) according to manufacturer's instructions. All experiments were conducted three times in triplicates. Results were shown as the means±SEM.

HFHC-fed WT mice = assay: HFHC-induced NAFLD in WT mice; type: in vivo
Source text: (§1) WT and Sqle Tg mice were fed with normal diet (18% fat, 58% carbohydrate, 24% protein, 0% cholesterol) or high fat high cholesterol (HFHC: 43.7% fat, 36.6% carbohydrate, 19.7% protein, 0.203% cholesterol) diets (Specialty Feeds, Glen Forrest, Wash.) ad libitum for different time point to generate spontaneous NAFLD model and diet-induced NASH model. Sqle tg mice and their wild-type littermates (WT) were fed a high fat high cholesterol diet at the age of 6 weeks. At 17 weeks of age (Sqle tg mice) or 24 weeks of age (WT mice), the mice will be randomized into two group and treated with either vehicle or Terbinafine (80 mg/kg/d, oral gavage). After 8 (WT mice) or 9 weeks (Sqle tg mice) terbinafine treatment, mice will be sacrificed to examine the therapeutic effect of Terbinafine. Assessment of NAFLD: Liver histology were evaluated at sacrifice using H&E staining. Assessment of inflammation: Liver damage were determined using serum ALT and AST. PCR and cytokine arrays were used to evaluate expression of pro-inflammatory cytokines. Assessment of metabolic syndrome: Insulin tolerance tests and glucose tolerance tests will be determined as described above. 20 mg tissues were harvested, and liver […] Quantification kit (ab65341, Abcam) according to manufacturer's instructions. All experiments were conducted three times in triplicates. Results were shown as the means±SEM. The serum cholesterol, TG, ALT and AST level were detected by the Catalyst One Chemistry Analyzer according to the manufacturer's instructions (IDEXX, USA). Thirty microliters of serum from wild-type or Sqle tg mice were diluted to 90 μl by physiological saline buffer. The diluted samples and specific slides (cholesterol, ALT and AST) were then loaded into the analyzer for automatic analysis.

HepG2 xenografts = assay: Subcutaneous HepG2 xenograft nude mice model; type: in vivo, Balb/c nude mice
Method: A xenograft human liver cancer mouse model was established using HepG2 cells. HepG2 cells (1×10^7 cells in 0.1 ml PBS) were injected subcutaneously into the left dorsal flank of 4-week-old male Balb/c nude mice. Once the subcutaneous tumors reached about 100 mm^3, these mice were divided into vehicle group (PBS, p.o.) and terbinafine group (80 mg/kg, p.o.) randomly. Tumor diameter was measured every days for 10 days. For survival analysis, tumor diameter was measured every two days for 40 days. Tumor volume (mm^3) was estimated by measuring the longest and shortest diameter of the tumor and calculating as follows: volume=(shortest diameter)^2×(longest diameter)×0.5. Care of animals and all experimental procedures were approved by the Animal Ethics Committee of the Chinese University of Hong Kong. After more than 2 weeks, the mice were sacrificed, and the tumors were weighed and fixed in formalin for histological analysis. […]
(§2) 10^6 cells or 2 mg tissues were harvested, and cholesterol/cholesteryl ester levels were detected by Cholesterol/Cholesteryl Ester Quantification kit (ab65359, Abcam) according to manufacturer's instructions. All experiments were conducted three times in triplicates. Results were shown as the means±SEM.

HKCI2 [2] = assay: Colony formation assay; type: cell-based, human; conditions: 25 μM to 50 μM
Method: (§3) 2 NAFLD-HCC cell lines (HKCI2, HKCI10) and one liver cancer cell line HepG2 were used in this study. Cell lines were maintained in RPMI-1640 or DMEM medium (Gibco BRL, Rockville, Md.) with 10% fetal bovine serum.
(§4) For cell colony formation assay, liver cancer cells (1000/well) were plated in 6-well plates. Different dose of Terbinafine were added to these cells at the second day. After culturing for 5-7 days, cells were fixed with 70% ethanol and stained with 0.5% crystal violet solution. Colonies with more than 50 cells per colony were counted. All experiments were conducted three times in triplicates.

HepG2 [3] = assay: Colony formation assay; type: cell-based, human; conditions: 25 μM to 50 μM
Method: as §3, §4

[4] = system: Sqle tg mice fed with a HFHC diet; assay: NASH development in HFHC-fed Sqle tg mice; type: in vivo
Method: as §1, with “model. 2 mg tissues were harvested, and liver cholesterol levels were detected by Cholesterol/Cholesteryl Ester Quantification kit (ab65359, Abcam) according to manufacturer's instructions. All experiments were conducted three times in triplicates. Results were shown as the means±SEM. 100 mg tissues were harvested, and liver triglyceride levels were detected by triglyceride Quantification kit (ab65336, Abcam) according to manufacturer's instructions. All experiments were conducted three times in triplicates. Results were shown as the means±SEM.” for “model.”, “analysis. For the glucose tolerance test, mice were fasted overnight by transferring mice to clean cages with no food or feces in upper or bottom of cage. Mice were then injected intraperitoneally with 0.75 U insulin per kg body weight (ITT) or 1 g glucose per kg body weight (GTT) in water. Blood from the tail vein was obtained before the injection and at 30, 60 and 90 min after the injection for determination of blood glucose using Glucose Meter.” for “analysis.”

HKCI10 [5] = assay: Colony formation assay; type: cell-based; conditions: 25 μM to 50 μM
Method: as §3, §4

SQLE and PCNA expression = assay: Western blot of SQLE and PCNA expression in treated cells; type: cell-based
[6] = system: Sqle tg mice injected with DEN and fed with a HFHC diet; type: in vivo
Method: Sqle tg mice injected with DEN (10 days of age) and fed with a HFHC diet (6 weeks of age). At 20 weeks of age, the mice will be randomized into two group and treated with either vehicle or Terbinafine (80 mg/kg/d, oral gavage). After 8 weeks terbinafine treatment, mice will be sacrificed to examine the therapeutic effect of Terbinafine. […]
The serum cholesterol, TG, ALT and AST level were detected by the Catalyst One Chemistry Analyzer according to the manufacturer's instructions (IDEXX, USA). Thirty microliters of serum from wild-type or Sqle tg mice were diluted to 90 μl by physiological saline buffer. The diluted samples and specific slides (cholesterol, ALT and AST) were then loaded into the analyzer for automatic analysis. […]

HKCI2 [7] = assay: Cell growth, cell viability (MTS) assay; type: cell-based, human; conditions: 25 μM to 50 μM
Method: as §3
(§5) Cell viability was determined by the 3-(4,5-dimethylthiazol-2-yl)-5-(3-carboxyme-thoxyphenyl)-2-(4-sulfophenyl)-2H-tetrazolium (MTS) assay (Promega, Madison, Wis.).

HepG2 [8] = assay: Cell growth, cell viability (MTS) assay; type: cell-based, human; conditions: 25 μM to 50 μM
Method: as §3, §5

HKCI10 [9] = assay: Cell growth, cell viability (MTS) assay; type: cell-based; conditions: 25 μM to 50 μM
Method: as §3, §5

HCC cell lines = assay: Cholesterol/cholesteryl ester levels in cells; type: cell-based
Method: as §2

[10] = 80 mg/kg/d oral gavage, 8 weeks
[11] = subcutaneous HepG2 xenografts, 80 mg/kg/d, p.o.
[12] = 80 mg/kg/d oral gavage, 9 weeks
[13] = DEN-injected HFHC-fed Sqle tg mice
[14] = livers of Sqle tg mice, western blot

CN(C/C=C/C#CC(C)(C)C)Cc1cccc2ccccc12 [terbinafine]
suppression of growth of orthotopic HKCI2 xenografts ([1]; 80 mg/kg, p.o., both in terms of tumor size or tumor weight, P<0.01): > 85% | tumor cholesteryl ester levels ([1]; HKCI2 xenografts): suppressed | tumor free cholesterol levels ([1]; HKCI2 xenografts): suppressed | HFHC-induced serum cholesterol (HFHC-fed WT mice): attenuated | liver steatosis (H&E staining and free fatty acid assay) (HFHC-fed WT mice): reduction | serum ALT level (HFHC-fed WT mice): attenuated | serum AST level (HFHC-fed WT mice): attenuated | serum triglyceride (HFHC-fed WT mice): attenuated | body weight (HFHC-fed WT mice; [10]): significantly decrease | liver weight (HFHC-fed WT mice; [10]): significantly decrease | suppression of growth of subcutaneous HepG2 xenografts (HepG2 xenografts; 80 mg/kg, p.o., P<0.01): 77.8% | tumor cholesteryl ester levels (HepG2 xenografts; HepG2 xenografts): suppressed | tumor free cholesterol levels (HepG2 xenografts; HepG2 xenografts): suppressed | tumor volume (HepG2 xenografts; [11]): significant reductions | tumor weight (HepG2 xenografts; [11]): significant reductions | overall survival of mice harboring HepG2 xenografts (HepG2 xenografts; tumor size 400 mm^3 as cutoff, P<0.01): significantly prolonged | cell lines proliferation by colony formation assay (HKCI2 [2]): markedly suppressed | cell lines proliferation by colony formation assay (HepG2 [3]): markedly suppressed | insulin sensitivity (ITTs) [4]: markedly improved | liver cholesterol level [4]: significantly decreased | liver free fatty acid accumulation [4]: significantly decreased | liver triglyceride [4]: significantly decreased | serum ALT level [4]: significantly decreased | serum AST level [4]: significantly decreased | serum triglyceride [4]: significantly decreased | body weight gain [4, 12]: significantly attenuated | liver weight [4, 12]: significantly attenuated | liver/body weight ratio [4, 12]: significantly attenuated | liver inflammation and fibrosis level (mRNA expression of inflammation and fibrosis mediators) ([4]; qPCR): reduced | steatohepatitis (H&E staining of livers) ([4]; vs PBS control): reduction | cell lines proliferation by colony formation assay (HKCI10 [5]): markedly suppressed | PCNA expression (SQLE and PCNA expression): suppressed | SQLE expression (SQLE and PCNA expression): suppressed | tumor number ([6]; 80 mg/kg/d oral gavage, 8 weeks, P<0.01): significantly reduced | tumor incidence ([6]; 80 mg/kg/d oral gavage, 8 weeks, vs 8/9 mice in PBS, P<0.05): 4/9 | NADP^+/NADPH ratio [6, 13]: reducing | liver cholesterol levels [6, 13]: decreased | liver/body weight ratio [6, 13]: decreased | serum cholesterol levels [6, 13]: decreased | Dnmt3a protein expression [6, 14]: inhibited | Pten expression [6, 14]: restored | Sqle protein expression [6, 14]: inhibited | HCC tumorigenesis and cell proliferation (H&E and Ki-67 staining of livers) ([6]; vs vehicle): reduction | cell lines proliferation by cell growth assay (HKCI2 [7]): markedly suppressed | cell lines proliferation by cell growth assay (HepG2 [8]): markedly suppressed | cell lines proliferation by cell growth assay (HKCI10 [9]): markedly suppressed | cholesteryl ester levels (HCC cell lines): suppressed | free cholesterol levels (HCC cell lines): suppressed
